The values that follow come from patent publication US12577219B2, “Macrolide brefeldin a ester derivatives and use thereof” (OCEAN UNIVERSITY OF CHINA, priority 2019, dated 2026).

Series [1] relates to esophageal cancer Eca-109 cells. Nature of the series: Cell proliferation assay (CCK-8). The class given is cell-based, human. To be noted: Eca-109, 72 h. The text has this: (§1) CCK-8 method: The CCK-8 method is a highly sensitive, non-radioactive colorimetric assay for the determination of the number of viable cells in cell proliferation or cytotoxicity assays. The orange formazan dye produced by the bioreduction of CCK-8 by intracellular dehydrogenase is soluble in the cell culture medium, and the amount of formazan dye produced is proportional to the number of living cells. The kit used in this method is the tetrazolium salt-WST-8 (2-(2-methoxy-4-nitrophenyl)-3-(4-nitrophenyl)-5-(2,4-disulfophenyl)-2H-tetrazolium monosodium salt) developed by Dojindo Chemical Research Institute (Dojindo), which is capable of being reduced to a water-soluble formazan dye in the presence of the electronic carrier 1-Methoxy PMS.
(§2) Human cervical cancer Hela cells, pancreatic cancer PANC-1cells, esophageal cancer Eca-109 cells, human leukemia K562 cells, human lung cancer A549 cells, human liver cancer HepG2 cells, human gastric cancer MKN-45 cells, human breast cancer MCF7 cells were cultured in DMEM medium containing 10% FBS (fetal bovine serum), 100 U/mL penicillin and 100 μg/ml streptomycin. Hepatocellular carcinoma cells Bel-7402 were cultured in RPMI-1640 medium containing 10% FBS (fetal bovine serum), 100 U/ml penicillin and 100 μg/ml streptomycin. All cells were placed in a cell culture incubator at 37° C. with 5% CO2. Cells fluid was changed every 3-5 days, and after 80% cell fusion, trypsin digestion and passaging were performed to keep the cells in good logarithmic growth phase.
(§3) All the samples to be tested were dissolved in DMSO.
(§4) Cells in logarithmic growth phase were inoculated in 96-well plates with 5000 cells/well respectively, and after 24 h of incubation, samples were added (final concentrations as shown in the table), and biplicate wells were set up for each sample. The amount of solvent of DMSO was not higher than 2%. After 72 h, 10 μL of CCK-8 solution was added to each well and incubated for 1.5˜3 h at 37° C. The OD value at 450 nm was measured on an plate reader. Inhibition rate (%)=(1−[(OD450 dosed well−OD450 blank well)/(OD450 control well−OD450 blank well)])×100%
(§5) The fitted IC50 values were calculated using the log (inhibitor) vs. response—Variable slop analysis method in GraphPad Prism software.

Series [2] concerns pancreatic cancer PANC-1cells. Put plainly: Cell proliferation assay (CCK-8). The class given is cell-based, human. Particulars: PANC-1, 72 h.
Text: as §1, §2, §3, §4, §5

The subject of series [3] is human lung cancer A549 cells. Nature of the series: Cell proliferation assay (CCK-8). Format: cell-based. Particulars: A549, 72 h.
Text: as §1, §2, §3, §4, §5

Series [4] deals with Human cervical cancer Hela cells. Nature of the series: Cell proliferation assay (CCK-8). To be noted: 72 h. Format: cell-based.
Text: as §1, §2, §3, §4, §5

Series [5] relates to human leukemia K562 cells. Put plainly: Cell proliferation assay (CCK-8). The class given is cell-based. To be noted: K562, 72 h.
Text: as §1, §2, §3, §4, §5

Series [6] relates to human liver cancer HepG2 cells. Put plainly: Cell proliferation assay (CCK-8). Format: cell-based. Particulars: HepG2, 72 h.
Text: as §1, §2, §3, §4, §5

For series [7], the system named is human gastric cancer MKN-45 cells. Nature of the series: Cell proliferation assay (CCK-8). Format: cell-based. Particulars: MKN-45, 72 h.
Text: as §1, §2, §3, §4, §5

Series [8] deals with human breast cancer MCF7 cells. Put plainly: Cell proliferation assay (CCK-8). The class given is cell-based. Particulars: MCF7, 72 h.
Text: as §1, §2, §3, §4, §5

Series [9] can be described thus: Solubility test (shaker 37° C., 24 h, HPLC). To be noted: for solubility at 24 h: 37 °C, thermodynamic from solid.
Method: The term “solubility” refers to the mass of solute dissolved when a solid substance reaches saturation state in 100 g solvent at a certain temperature.
Methods: Excess BFA and the compounds disclosed herein were added to 10 mL of three solvents, methanol, acetone and 5% DMSO+95% H2O, respectively, and shaken on a shaker at 37° C. at 100 r/min for 24 h. After 24 h, the samples were centrifuged at 15,000 r/min for 15 min to remove the undissolved compounds. The supernatant was filtered using a 0.45 μm membrane filter. The supernatant was appropriately diluted with methanol and contents of the compounds were determined by HPLC method to calculate the solubility.
In the next series the test system is Kunming breed mice. Nature of the series: Toxicity test after intraperitoneal administration to mice. Format: in vivo. To be noted: ip.; for Organ abnormality at anatomy: anatomy on the 14 th day; for Mental condition of the animals after administration: high and low doses; for Deaths after administration: high and low doses (BFA effective amount conversion), 14 d. The protocol:
Objective: Observation of toxic effects of compounds after intraperitoneally administration (ip.) to mice
1) Agents: Compounds disclosed herein were formulated to a suitable concentration.
2) Animals: Kunming breed mice, weight 18-22 g, male. Provided by Jinan Pengyue Laboratory Animal Breeding Co., Ltd. Animal license number: SCXK (Shandong 20140007)
Method: Kunming breed mice, were randomly grouped by weight, 6 mice per group, namely normal control group, BFA high and low dose groups (100 mg/kg and 50 mg/kg, respectively), and high and low dose groups of some compounds disclosed herein (BFA effective amount conversion). […] After 14 d of continuous administration, all the animals were weighed, and the animals were executed to observe whether there were any abnormalities in the organs.

Where [10] appears, read: 5% DMSO + 95% H2O, aqueous with cosolvent or surfactant or cyclodextrin.
Where [11] appears, read: acetone, organic solvent or mixture.
Setting [12] is: methanol, organic solvent or mixture.

≈ marks a conversion by molar mass, not a printed value.

For orientation: IC50 means the midpoint of a concentration-inhibition curve. Low readings indicate greater potency in that assay, high ones weaker potency in that assay. For the compound `COc1cccc2c1C(=O)c1c(O)c3c(c(O)c1C2=O)C[C@@](O)(C(=O)CO)C[C@@H]3O[C@H]1C[C@H](N)[C@H](O)[C@H](C)O1` [Adriamycin], the IC50 in series [1] (Homo sapiens) was 100 to 1000 nM; in series [2] (Homo sapiens), less than 100 nM; in series [3] (Homo sapiens), 100 to 1000 nM; in series [4] (Homo sapiens), 100 to 1000 nM; in [5] (Homo sapiens), 1000 to 10000 nM; in [6] (Homo sapiens), greater than 10000 nM. In addition, the IC50 in series [7] (Homo sapiens) was in the range of 100 to 1000 nM; in series [8] (Homo sapiens), 1000 to 10000 nM.
For `C[C@H]1CCC/C=C/[C@@H]2C[C@H](O)C[C@H]2[C@H](O)/C=C/C(=O)O1` [BFA, Brefeldin A], the “Solubility, 5% DMSO + 95% H2O” value in [9] (5% DMSO + 95% H2O, 37° C., 24 h, x ± s, n = 3) came to 85 ± 30 µg/mL. In addition, the “Solubility, Acetone” value in [9] (acetone, 37° C., 24 h, x ± s, n = 3) came out at 3130 ± 1240 µg/mL (≈ 11.2 mM). Moreover, the “Solubility, Methanol” value in series [9] (methanol, 37° C., 24 h, x ± s, n = 3) came to 3130 ± 1240 µg/mL (≈ 11.2 mM). Also, the IC50 in [1] is 100 to 1000 nM; in series [2], less than 100 nM; in series [3], 100 to 1000 nM; in [4], 100 to 1000 nM; in series [5], 100 to 1000 nM; in series [6], 100 to 1000 nM. Moreover, the IC50 in [7] is 100 to 1000 nM; in series [8], less than 100 nM.
For `C[C@H]1CCC/C=C/[C@@H]2C[C@H](OC(=O)/C=C/c3cccc(F)c3)C[C@H]2[C@H](O)/C=C/C(=O)O1` [Compound 1a, 7-O-(3-fluorocinnamic acid)acyl BFA], in the series on Kunming breed mice, the “Organ abnormality at anatomy” value is “no significant abnormality in all organs”, the “Mental condition of the animals after administration” value (from here on “Mental condition of the animals”) was “good mental condition” and the Deaths after administration entry is listed as “no deaths”.
In the case of `C[C@H]1CCC/C=C/[C@@H]2C[C@H](O)C[C@H]2[C@H](OC(=O)/C=C/c2cccc(F)c2)/C=C/C(=O)O1` [Compound 1b, 4-O-(3-fluorocinnamic acid)acyl BFA], in the series on Kunming breed mice, the “Organ abnormality at anatomy” value is recorded as “no significant abnormality in all organs”, the “Mental condition of the animals” value was “good mental condition” and the Deaths after administration result is “no deaths”.
The matching figures for `C[C@H]1CCC/C=C/[C@@H]2C[C@H](OC(=O)/C=C/c3cccc(F)c3)C[C@H]2[C@H](OC(=O)/C=C/c2cccc(F)c2)/C=C/C(=O)O1` [Compound 1c, 4,7-O-bis(3-fluorocinnamic acid)acyl BFA]: “no significant abnormality in all organs”, “good mental condition” and “no deaths”.
Take `C[C@H]1CCC/C=C/[C@@H]2C[C@H](O)C[C@H]2[C@H](OC(=O)/C=C/c2ccc3c(c2)OCO3)/C=C/C(=O)O1` [Compound 9b, 4-O-((E)-3-(benzo[d][1,3]dioxa-5-yl)acrylic acid)acyl BFA]: the IC50 lay within 1000 to 10000 nM in series [1]; 100 to 1000 nM in series [2]; 100 to 1000 nM in series [3]; 1000 to 10000 nM in series [4]; 100 to 1000 nM in series [5]; 1000 to 10000 nM in [6]. In addition, the IC50 in [7] and in series [8] was 100 to 1000 nM in each case.
In the case of `C[C@H]1CCC/C=C/[C@@H]2C[C@H](OC(=O)/C=C/c3ccc(N(C)C)cc3)C[C@H]2[C@H](O)/C=C/C(=O)O1` [Compound 10a, 7-O-(4-dimethylaminocinnamic acid)acyl BFA], in the series with Kunming breed mice, the “Organ abnormality at anatomy” value is recorded as “no significant abnormality in all organs”, the “Mental condition of the animals” value is listed as “good mental condition” and the Deaths after administration result is given as “no deaths”.
Regarding `C[C@H]1CCC/C=C/[C@@H]2C[C@H](O)C[C@H]2[C@H](OC(=O)/C=C/c2ccc(N(C)C)cc2)/C=C/C(=O)O1` [Compound 10b, 4-O-(4-dimethylaminocinnamic acid)acyl BFA], in the series with Kunming breed mice, the “Organ abnormality at anatomy” value is “no significant abnormality in all organs”, the “Mental condition of the animals” value is given as “good mental condition” and the Deaths after administration result is recorded as “no deaths”.
Taken in the same sequence, the figures for `C[C@H]1CCC/C=C/[C@@H]2C[C@H](OC(=O)/C=C/c3ccc(N(C)C)cc3)C[C@H]2[C@H](OC(=O)/C=C/c2ccc(N(C)C)cc2)/C=C/C(=O)O1` [Compound 10c, 4,7-O-bis(4-dimethylaminocinnamic acid)acyl BFA] were “no significant abnormality in all organs”, “good mental condition” and “no deaths”.
In the case of `C[C@H]1CCC/C=C/[C@@H]2C[C@H](OC(=O)/C=C/c3cccnc3)C[C@H]2[C@H](O)/C=C/C(=O)O1` [Compound 16a, 7-O-(3-(pyridine-3-yl)acrylic acid)acyl BFA], in the series on Kunming breed mice, the “Organ abnormality at anatomy” value is given as “no significant abnormality in all organs”, the “Mental condition of the animals” value is on record as “good mental condition” and the Deaths after administration result is reported as “no deaths”.
For `C[C@H]1CCC/C=C/[C@@H]2C[C@H](O)C[C@H]2[C@H](OC(=O)/C=C/c2cccnc2)/C=C/C(=O)O1` [Compound 16b], in the series with Kunming breed mice, the “Organ abnormality at anatomy” value is recorded as “no significant abnormality in all organs”, the “Mental condition of the animals” value is on record as “good mental condition” and the Deaths after administration result was “no deaths”.
The matching figures for `C[C@H]1CCC/C=C/[C@@H]2C[C@H](OC(=O)/C=C/c3cccnc3)C[C@H]2[C@H](OC(=O)/C=C/c2cccnc2)/C=C/C(=O)O1` [Compound 16c]: “no significant abnormality in all organs”, “good mental condition” and “no deaths”.
Take `C[C@H]1CCC/C=C/[C@@H]2C[C@H](OC(=O)/C=C/c3cnc4ccccc4c3)C[C@H]2[C@H](OC(=O)/C=C/c2cnc3ccccc3c2)/C=C/C(=O)O1` [Compound 17c]: the IC50 in [1] fell in the range of 1000 to 10000 nM; in series [2] it was 100 to 1000 nM; in [3] it was 1000 to 10000 nM; in series [4], 1000 to 10000 nM; in [5], 100 to 1000 nM; in [6], 100 to 1000 nM. The IC50 in series [7] lay in the range of 1000 to 10000 nM; in [8], 100 to 1000 nM.
The solubility is how much of the substance goes into solution per volume. Turning to `C[C@H]1CCC/C=C/[C@@H]2C[C@H](O)C[C@H]2[C@H](OC(=O)/C=C/c2ccccc2)/C=C/C(=O)O1` [Compound B], the solubility at 24 h in series [9] (setting [10]) came out at 220 ± 160 µg/mL; in series [9] (setting [11]), 9480 ± 3230 µg/mL (≈ 23.1 mM); in series [9] (setting [12]), 9410 ± 1510 µg/mL (≈ 22.9 mM). The IC50 fell in the range of 1000 to 10000 nM in [1] (Homo sapiens); 100 to 1000 nM in series [2] (Homo sapiens); 1000 to 10000 nM in series [3] (Homo sapiens); 1000 to 10000 nM in [4] (Homo sapiens); 100 to 1000 nM in [5] (Homo sapiens); 1000 to 10000 nM in series [6] (Homo sapiens). Further, the IC50 in series [7] (Homo sapiens) is 1000 to 10000 nM; in series [8] (Homo sapiens), 100 to 1000 nM.
For `C[C@H]1CCC/C=C/[C@@H]2C[C@H](OC(=O)/C=C/c3ccccc3)C[C@H]2[C@H](OC(=O)/C=C/c2ccccc2)/C=C/C(=O)O1` [Compound C], the solubility at 24 h was 100 ± 230 µg/mL in series [9] (setting [10]), 5360 ± 3130 µg/mL (≈ 9.91 mM) in series [9] (setting [11]) and 5300 ± 2510 µg/mL (≈ 9.8 mM) in series [9] (setting [12]). Besides, the IC50 in series [1] (Homo sapiens), in series [2] (Homo sapiens), in series [3] (Homo sapiens), in series [4] (Homo sapiens), in series [5] (Homo sapiens) and in series [6] (Homo sapiens) was 1000 to 10000 nM in each case. The IC50 in series [7] (Homo sapiens) and in series [8] (Homo sapiens) was 1000 to 10000 nM each time.
